# Measurements taken from US20240382483A1, “HETEROCYCLIC EGFR INHIBITORS FOR USE IN THE TREATMENT OF CANCER” (Blueprint Medicines Corporation, priority 2021, published 2024).
# Counter-ions that a name gives are not always drawn. Like-named read-outs stand apart in the source and are kept apart here.
# What was measured:
# EGFR (L858R T790M C797S) = target: T1, EGFR (L858R T790M C797S) (Homo sapiens, UniProt P00533, C797S/L858R/T790M); test: Biochemical EGFR inhibition assay (Caliper mobility shift), EGFR LRTMCS
# T1 construct: purchased SignalChem E10-122VG
# Summary of the method: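 Kinase reactions at 25 °C run to 10–20% peptide phosphorylation, stopped with 35 mM EDTA. Phosphorylated product and substrate separated electrophoretically by mobility shift. Apparent IC50 from percent activity versus log compound concentration.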
# [1] = target: T2, intracellular phosphorylation of EGFR in NCI-H1975 cell line that harbors the EGFR L858R T790M mutations (Homo sapiens, UniProt P00533, L858R/T790M); test: NCI-H1975 pEGFR AlphaLISA assay; type: cell-based; conditions: NCI-H1975 cells (EGFR L858R T790M), p-EGFR (Tyr1068), 4-5 hours incubation; read-out: Ext pEGFR H1975 GMean IC50 (nM) Protocol: @Pharmaron AlphaLISA (Num)
# T2 construct: NCI-H1975 cell line that harbors the EGFR L858R T790M mutations (ATCC, CRL-5908); host or cells: NCI-H1975
# Method: On the next day, the test compounds and DMSO control were added into H1975 cell plate followed by incubation at 37C/5% CO2 for 4-5 hours. […] Then 5 μL of a donor bead mix was added to each well followed by overnight incubation at room temperature in dark. On the next day, the plate was read at a compatible plate reader to obtain pEGFR signal. Percent of pEGFR inhibition was plotted against log concentration of compounds to generate IC50 values.
# [2] = LRTMCS (PH) IC50 (nM) @ 1 mM ATP (Num), EGFR LRTMCS mutant
# T1 sequence (P00533 25-1210 T790M/C797S/L858R): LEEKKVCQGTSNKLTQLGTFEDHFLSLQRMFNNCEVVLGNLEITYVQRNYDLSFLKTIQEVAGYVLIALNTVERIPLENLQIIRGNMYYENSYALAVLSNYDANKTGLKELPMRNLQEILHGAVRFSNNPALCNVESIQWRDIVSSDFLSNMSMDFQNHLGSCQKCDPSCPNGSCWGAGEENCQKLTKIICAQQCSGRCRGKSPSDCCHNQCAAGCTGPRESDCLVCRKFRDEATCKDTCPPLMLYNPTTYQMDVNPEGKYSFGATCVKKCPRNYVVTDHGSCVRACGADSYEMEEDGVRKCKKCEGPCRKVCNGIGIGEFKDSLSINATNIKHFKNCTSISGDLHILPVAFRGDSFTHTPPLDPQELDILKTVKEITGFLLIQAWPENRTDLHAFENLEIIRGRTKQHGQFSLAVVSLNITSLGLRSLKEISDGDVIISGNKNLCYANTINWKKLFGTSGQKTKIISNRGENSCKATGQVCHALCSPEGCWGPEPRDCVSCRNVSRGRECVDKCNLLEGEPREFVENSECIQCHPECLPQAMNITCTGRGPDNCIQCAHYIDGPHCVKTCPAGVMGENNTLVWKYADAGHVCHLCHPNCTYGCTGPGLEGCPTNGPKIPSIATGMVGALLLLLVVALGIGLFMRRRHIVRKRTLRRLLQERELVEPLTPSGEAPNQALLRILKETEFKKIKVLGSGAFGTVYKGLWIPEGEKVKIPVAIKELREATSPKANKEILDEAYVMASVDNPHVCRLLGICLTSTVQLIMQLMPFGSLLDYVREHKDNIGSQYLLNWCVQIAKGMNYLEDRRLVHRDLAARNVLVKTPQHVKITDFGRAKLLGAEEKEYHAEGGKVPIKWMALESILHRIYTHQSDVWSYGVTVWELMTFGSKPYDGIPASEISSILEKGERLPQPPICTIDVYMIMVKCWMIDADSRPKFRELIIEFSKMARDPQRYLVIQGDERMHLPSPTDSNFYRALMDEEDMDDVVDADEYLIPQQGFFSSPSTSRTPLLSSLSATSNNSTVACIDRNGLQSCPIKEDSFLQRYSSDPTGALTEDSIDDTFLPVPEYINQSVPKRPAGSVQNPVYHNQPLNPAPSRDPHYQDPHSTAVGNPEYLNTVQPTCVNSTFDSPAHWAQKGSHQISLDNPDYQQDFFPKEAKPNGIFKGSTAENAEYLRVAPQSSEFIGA
# T2 sequence (P00533 25-1210 T790M/L858R): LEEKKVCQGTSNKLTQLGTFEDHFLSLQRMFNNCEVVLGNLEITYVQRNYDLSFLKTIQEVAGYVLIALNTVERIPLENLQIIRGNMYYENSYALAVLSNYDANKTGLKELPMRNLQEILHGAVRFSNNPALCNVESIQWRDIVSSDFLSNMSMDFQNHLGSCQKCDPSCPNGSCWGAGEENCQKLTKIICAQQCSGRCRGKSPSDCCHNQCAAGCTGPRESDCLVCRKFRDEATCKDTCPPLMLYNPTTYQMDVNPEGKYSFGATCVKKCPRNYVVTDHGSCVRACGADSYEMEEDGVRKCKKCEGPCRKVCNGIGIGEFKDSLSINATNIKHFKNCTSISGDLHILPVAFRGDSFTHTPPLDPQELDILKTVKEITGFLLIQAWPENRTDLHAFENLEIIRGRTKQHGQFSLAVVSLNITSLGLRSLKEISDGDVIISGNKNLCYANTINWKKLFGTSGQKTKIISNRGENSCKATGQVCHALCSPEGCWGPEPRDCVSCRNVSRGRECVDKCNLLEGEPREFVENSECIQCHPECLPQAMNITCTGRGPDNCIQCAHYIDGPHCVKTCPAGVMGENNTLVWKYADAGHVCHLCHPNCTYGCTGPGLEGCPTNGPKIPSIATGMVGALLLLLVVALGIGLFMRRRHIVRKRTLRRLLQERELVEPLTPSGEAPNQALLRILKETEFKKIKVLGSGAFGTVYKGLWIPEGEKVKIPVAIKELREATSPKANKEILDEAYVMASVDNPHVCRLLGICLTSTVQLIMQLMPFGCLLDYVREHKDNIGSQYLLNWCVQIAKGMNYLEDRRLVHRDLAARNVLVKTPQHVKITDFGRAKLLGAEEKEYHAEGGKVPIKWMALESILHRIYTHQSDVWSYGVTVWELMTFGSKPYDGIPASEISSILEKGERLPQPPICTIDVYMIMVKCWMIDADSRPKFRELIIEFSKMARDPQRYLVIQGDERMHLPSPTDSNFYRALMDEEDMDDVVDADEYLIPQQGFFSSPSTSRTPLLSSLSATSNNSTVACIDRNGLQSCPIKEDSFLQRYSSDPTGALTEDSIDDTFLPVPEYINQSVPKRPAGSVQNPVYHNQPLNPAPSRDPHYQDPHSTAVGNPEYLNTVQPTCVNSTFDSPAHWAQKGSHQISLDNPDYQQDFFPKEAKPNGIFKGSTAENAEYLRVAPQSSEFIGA
SMILES,IC50 (EGFR (L858R T790M C797S); [2]) [nM],IC50 [1] [nM],"IC50 (EGFR (L858R T790M C797S); read-out: LRTMCS (PH) IC50 (nM) @ 1 mM ATP (Num), EGFR LRTMCS mutant) [nM]"
"CC(C)c1cnc(N2C[C@H](O)[C@H]2C)c2cnc(Nc3ccnc(N4CC[C@@H](O)C5(CC5)C4)n3)cc12 (single isomer, unassigned) [Example 169, (R)-5-(4-((8-((2R,3S)-3-hydroxy-2-methylazetidin-1-yl)-5-isopropyl-2,7-naphthyridin-3-yl)amino)pyrimidin-2-yl)-5-azaspiro[2.5]octan-8-ol or (S)-5-(4-((8-((2R,3S)-3-hydroxy-2-methylazetidin-1-yl)-5-isopropyl-2,7-naphthyridin-3-yl)amino)pyrimidin-2-yl)-5-azaspiro[2.5]octan-8-ol]",< 15,30 to 50,–
"C[C@H](C#N)c1ncc(N2CC[C@H]2C)c2cnc(Nc3ccnc(N4CC[C@@H](O)[C@@](C)(F)C4)n3)cc12 (single isomer, unassigned) [Example 157, (S)-2-(7-((2-((3S,4R)-3-fluoro-4-hydroxy-3-methylpiperidin-1-yl)pyrimidin-4-yl)amino)-4-((R)-2-methylazetidin-1-yl)-2,6-naphthyridin-1-yl)propanenitrile or (R)-2-(7-((2-((3S,4R)-3-fluoro-4-hydroxy-3-methylpiperidin-1-yl)pyrimidin-4-yl)amino)-4-((R)-2-methylazetidin-1-yl)-2,6-naphthyridin-1-yl)propanenitrile]",< 15,> 50,–
"CC(C)c1cnc(N2CC(CNS(C)(=O)=O)C2)c2cnc(Nc3ccnc(N4CC[C@@H](O)[C@@](C)(F)C4)n3)cc12 [Example 83, N-((1-(6-((2-((3S,4R)-3-fluoro-4-hydroxy-3-methylpiperidin-1-yl)pyrimidin-4-yl)amino)-4-isopropyl-2,7-naphthyridin-1-yl)azetidin-3-yl)methyl)methanesulfonamide]",< 15,20 to 30,–
"CO[C@H]1CCN(c2nccc(Nc3cc4c(C(C)C)cnc(N5C[C@H](O)[C@H]5C)c4cn3)n2)C[C@H]1F [Example 149, (2R,3S)-1-(6-((2-((3R,4S)-3-fluoro-4-methoxypiperidin-1-yl)pyrimidin-4-yl)amino)-4-isopropyl-2,7-naphthyridin-1-yl)-2-methylazetidin-3-ol]",< 15,10 to 20,–
"CC(C)c1cnc(N2CC(C#N)C2)c2cnc(Nc3ccnc(N4CC[C@@H](O)[C@@](C)(F)C4)n3)cc12 [Example 58, 1-(6-((2-((3S,4R)-3-fluoro-4-hydroxy-3-methylpiperidin-1-yl)pyrimidin-4-yl)amino)-4-isopropyl-2,7-naphthyridin-1-yl)azetidine-3-carbonitrile]",< 15,10 to 20,–
"CNC(=O)C1CN(c2ncc(C(C)C)c3cc(Nc4ccnc(N5CC[C@@H](O)[C@@](C)(F)C5)n4)ncc23)C1 [Example 80, 1-(6-((2-((3S,4R)-3-fluoro-4-hydroxy-3-methylpiperidin-1-yl)pyrimidin-4-yl)amino)-4-isopropyl-2,7-naphthyridin-1-yl)-N-methylazetidine-3-carboxamide]",< 15,30 to 50,–
"CO[C@@H]1CCN(c2nccc(Nc3cc4c(C(C)C)cnc(N5CC(C(=O)N(C)C)C5)c4cn3)n2)C[C@@H]1O (single isomer, unassigned) [Example 120, 1-(6-((2-((3S,4R)-3-hydroxy-4-methoxypiperidin-1-yl)pyrimidin-4-yl)amino)-4-isopropyl-2,7-naphthyridin-1-yl)-N,N-dimethylazetidine-3-carboxamide or 1-(6-((2-((3R,4S)-3-hydroxy-4-methoxypiperidin-1-yl)pyrimidin-4-yl)amino)-4-isopropyl-2,7-naphthyridin-1-yl)-N,N-dimethylazetidine-3-carboxamide]",20 to 30,30 to 50,–
"COC1CN(c2ncc(C(C)C)c3cc(Nc4ccnc(N5CC[C@@H](O)[C@@](C)(F)C5)n4)ncc23)C1 [Example 51, (3S,4R)-3-fluoro-1-(4-((5-isopropyl-8-(3-methoxyazetidin-1-yl)-2,7-naphthyridin-3-yl)amino)pyrimidin-2-yl)-3-methylpiperidin-4-ol]",< 15,20 to 30,–
"CC(C)c1cnc(N2CC[C@H]2CN(C)C)c2cnc(Nc3ccnc(N4CC[C@@H](O)[C@@](C)(F)C4)n3)cc12 [Example 48, (3S,4R)-1-(4-((8-((S)-2-((dimethylamino)methyl)azetidin-1-yl)-5-isopropyl-2,7-naphthyridin-3-yl)amino)pyrimidin-2-yl)-3-fluoro-3-methylpiperidin-4-ol trifluoroacetate]",< 15,10 to 20,–
"CC(C)c1cnc(N2CC(O)C2)c2cnc(Nc3ccnc(N4CC[C@@H](O)[C@@](C)(F)C4)n3)cc12 [Example 62, (3S,4R)-3-fluoro-1-(4-((8-(3-hydroxyazetidin-1-yl)-5-isopropyl-2,7-naphthyridin-3-yl)amino)pyrimidin-2-yl)-3-methylpiperidin-4-ol]",< 15,30 to 50,–
"CC(C)c1cnc(-c2cnn(C3CN(C)C3)c2)c2cnc(Nc3ccnc(N4CC[C@@H](O)[C@@](C)(F)C4)n3)cc12 [Example 22, (3S,4R)-3-fluoro-1-(4-((5-isopropyl-8-(1-(1-methylazetidin-3-yl)-1H-pyrazol-4-yl)-2,7-naphthyridin-3-yl)amino)pyrimidin-2-yl)-3-methylpiperidin-4-ol]",15 to 20,> 50,–
"CC(C)c1cnc(N2C[C@H](O)[C@H]2C)c2cnc(Nc3ccnc(N4C[C@@H](F)[C@@H](O)C(C)(C)C4)n3)cc12 (single isomer, unassigned) [Example 145, (4S,5R)-5-fluoro-1-(4-((8-((2R,3S)-3-hydroxy-2-methylazetidin-1-yl)-5-isopropyl-2,7-naphthyridin-3-yl)amino)pyrimidin-2-yl)-3,3-dimethylpiperidin-4-ol or (4R,5S)-5-fluoro-1-(4-((8-((2R,3S)-3-hydroxy-2-methylazetidin-1-yl)-5-isopropyl-2,7-naphthyridin-3-yl)amino)pyrimidin-2-yl)-3,3-dimethylpiperidin-4-ol]",< 15,20 to 30,–
"CO[C@H]1CCN(c2nccc(Nc3cc4c(C(C)C)cnc(N5CC[C@H]5C)c4cn3)n2)C[C@H]1OCCO (single isomer, unassigned) [Example 167, 2-(((3R,4S)-1-(4-((5-isopropyl-8-((R)-2-methylazetidin-1-yl)-2,7-naphthyridin-3-yl)amino)pyrimidin-2-yl)-4-methoxypiperidin-3-yl)oxy)ethan-1-ol or 2-(((3S,4R)-1-(4-((5-isopropyl-8-((R)-2-methylazetidin-1-yl)-2,7-naphthyridin-3-yl)amino)pyrimidin-2-yl)-4-methoxypiperidin-3-yl)oxy)ethan-1-ol]",< 15,< 10,–
"CC(C)c1ccc(N2CC(c3nnco3)C2)c2cnc(Nc3ccnc(N4CC[C@@H](O)[C@@](C)(F)C4)n3)cc12 [Example 111, (3S,4R)-1-(4-((8-(3-(1,3,4-oxadiazol-2-yl)azetidin-1-yl)-5-isopropylisoquinolin-3-yl)amino)pyrimidin-2-yl)-3-fluoro-3-methylpiperidin-4-ol]",< 15,< 10,–
"CO[C@@H]1CCN(c2nccc(Nc3cc4c(C(C)C)ccc(N5CC6(CCS6(=O)=O)C5)c4cn3)n2)C[C@@H]1O (single isomer, unassigned) [Example 125, 6-(3-((2-((3S,4R)-3-hydroxy-4-methoxypiperidin-1-yl)pyrimidin-4-yl)amino)-5-isopropylisoquinolin-8-yl)-1-thia-6-azaspiro[3.3]heptane 1,1-dioxide or 6-(3-((2-((3R,4S)-3-hydroxy-4-methoxypiperidin-1-yl)pyrimidin-4-yl)amino)-5-isopropylisoquinolin-8-yl)-1-thia-6-azaspiro[3.3]heptane 1,1-dioxide]",< 15,30 to 50,–
"CNCCO[C@@H]1CCN(c2nccc(Nc3cc4c(C(C)C)cnc(N5CC[C@H]5C)c4cn3)n2)C[C@@H]1F [Example 201, N-(2-((3S,4R)-3-fluoro-4-(2-(methylamino)ethoxy)piperidin-1-yl)pyrimidin-4-yl)-5-isopropyl-8-((R)-2-methylazetidin-1-yl)-2,7-naphthyridin-3-amine]",< 15,10 to 20,–
"CC(C)c1cnc(N2CC[C@@H](CS(C)(=O)=O)C2)c2cnc(Nc3ccnc(N4CC[C@@H](O)[C@@](C)(F)C4)n3)cc12 (single isomer, unassigned) [Example 208, (3S,4R)-3-fluoro-1-(4-((5-isopropyl-8-((R)-3-((methylsulfonyl)methyl)pyrrolidin-1-yl)-2,7-naphthyridin-3-yl)amino)pyrimidin-2-yl)-3-methylpiperidin-4-ol or (3S,4R)-3-fluoro-1-(4-((5-isopropyl-8-((S)-3-((methylsulfonyl)methyl)pyrrolidin-1-yl)-2,7-naphthyridin-3-yl)amino)pyrimidin-2-yl)-3-methylpiperidin-4-ol]",–,10 to 20,< 15
